Where two headings read alike, the source gives them in different places.
Assays:
[1] = target: conversion of PrP^C to PrP^Sc (Mus musculus, UniProt P04925); type: cell-based; conditions: for reduction of the amount of detergent insoluble PrP: 100 mM
[2] = system: ScN2a cells
[3] = target: T1, ΔF508 CFTR (Homo sapiens, UniProt P13569, DEL508-508); experiment: Western blotting of ΔF508 CFTR processing and maturation in transfected NIH 3T3 cells; type: cell-based
T1 construct: expressed in transfected cells
Protocol: The effect of glycerol was measured by detecting either (1) the maturation of immature core-glycosylated endoplasmic reticulum forms of the ΔF508 CFTR to mature terminally glycosylated forms, or (2) the presence of forskolin-dependent chloride transport.
Western blotting using a commercially available anti-CFTR monoclonal antibody (panel 1A) or our polyclonal anti-CFTR antibody (Panel 1B) was performed using cell lysates from NIH 3T3 cells transfected with either the wild type or ΔF508 forms of CFTR. Andersen, M. P. et al., Science, 253:202 (1991). Both the polyclonal and monoclonal antibodies recognized the 140 kDa (core glycosylated, or B form) and 160 kDa (fully glycosylated, C form) forms of CFTR in lysates from wild type CFTR expressing cells. In contrast, only the 140 kDa core glycosylated CFTR was detected by the two antibodies in the lysates from cells transfected with the ΔF508 CFTR mutant.
In panel 1C, cells expressing the ΔF508 mutant were examined by Western blotting using the rabbit polyclonal antibody following their treatment at 37° C. with 1 M glycerol for 3 days. As a positive control, the ΔF508 CFTR expressing cells were incubated at 26° C. for 3 days.
The results of experiments to determine the optimal concentration of glycerol and the duration of glycerol treatment needed to elicit the highest levels of mutant ΔF508 CFTR maturation are summarized in FIG. 2. In panel 2A, cells expressing ΔF508 CFTR were incubated at 37° C. for 3 days in culture medium containing various concentrations of glycerol. The cells were harvested and then analyzed by Western blotting using the rabbit polyclonal anti-CFTR antibody. In panel 2B, cells expressing ΔF508 CFTR were incubated with 1.25 M glycerol at 37° C. for 1, 2 or 3 days and then analyzed by Western blotting as described in A. Glycerol concentrations of 1-1.25 M gave the maximal amount of mutant protein which was properly processed.
In Panel A of FIG. 22, 3T3 cells expressing the ΔF508 CFTR protein (via stable transfection) were treated with either 100 or 200 mM of the specified cellular osmolytes for 2 days. Cells were then lysed and examined by Western blot analysis. Wt represents cells expressing the wild type CFTR protein. B, G, T, S and M indicated cells treated with betaine, glucose, taurine, sorbitol and myoinositol, respectively.
In Panel A, cells expressing ΔF508 CFTR were incubated in the presence or absence of varying concentrations (25, 50, 100 mM) of osmolyte. After 2 days of growth, the cells were harvested and analyzed for their content of immature (band B) and mature (band C) forms of the CFTR protein by Western blotting. Cells expressing wild type CFTR (wt) were included as a positive control. In Panel B, cells expressing ΔF508 CFTR were incubated for 1 (1D), 2(2D) or 3 (3D) days in growth medium containing 150 mM of the indicated osmolyte. As a control, the same cells were incubated in normal growth medium. […] After 3 days of continuous treatment with 150 mM osmolyte there is see a “drop-off” of the amount of the C band.

[4] = target: T1, ΔF508 CFTR; experiment: Forskolin stimulated chloride transport, SPQ fluorescence assay; type: cell-based; conditions: for forskolin dependent chloride efflux: 37° C.
Protocol: (§1) Forskolin-sensitive chloride transport was measured by the fluorescence assays method (FIG. 3). Briefly, ΔF508-CFTR expressing cells were grown on glass coverslips at 37° C. in the absence or presence of 1.25 M glycerol for 3 days. These cells, along with cells expressing wild type CFTR, then were examined for forskolin stimulated chloride transport using SPQ fluorescence assays, as described in: Verkman, A. S., Am. J. Physiol., 259:C375 (1990); Verkman, A. S. et al., in Methods in Neurosciences, Kraicer, J. et al., Eds. (Academic Press, 1995) vol. 27, 328. Plasma membrane chloride efflux was measured from the time course of increase in SPQ fluorescence in response to replacement of intracellular chloride by nitrate. Cells in the presence or absence of a protein stabilizing agent were incubated with 2 mM SPQ for 12-18 hrs. prior to measurements. The rate of chloride efflux was measured before and after stimulation of cAMP with forskolin. The reaction was quenched by the addition of 150 mM KSCN.
(§2) The positive effect of glycerol treatment on chloride conductance was concentration and time dependent (FIG. 3B). ΔF508 CFTR-expressing cells growing on glass coverslips were incubated with various concentrations of glycerol for 3 days and then examined for forskolin stimulated chloride transport. Alternatively, cells were incubated with 1.25 M glycerol for varying times (1, 2 or 3 days) and then analyzed for chloride transport following stimulation by forskolin.
Powdered DMEM medium (Gibco) was reconstituted in 100% distilled water or in 100% […]. Cells transfected with ΔF508 CFTR or mock transfected cells were incubated in either the distilled water or the dH2O containing culture medium for two days at 37° C., and then analyzed for forskolin dependent chloride efflux.
Both mock transfected cells and the cells transfected with ΔF508 CFTR were incubated in regular DMEM culture medium containing 100 mM TMAO for two days at 37° C. and then analyzed for forskolin dependent chloride efflux.
In contrast, cells treated with 4 different osmolytes now show partial chloride transport (note however that it never reaches the wild type levels, rather only about 10-30% of wild type).

[5] = system: temperature sensitive form of pp60^src; type: cell-based, Rous sarcoma virus; conditions: 39.5° C.
[6] = target: temperature sensitive (ts) mutant p53 protein (Mus musculus, UniProt P02340, A135V); experiment: Intracellular localization of temperature sensitive p53 in A1-5 cells by indirect immunofluorescence; conditions: 39.5° C., after 2 D treatment
[7] = target: T2, wild type CFTR protein (Homo sapiens, UniProt P13569); experiment: Glycerol exposure of cells expressing wild type CFTR (Western blotting, chloride conductance); type: cell-based; conditions: data not shown
T2 construct: expressed in transfected cells; host or cells: NIH 3T3 fibroblasts
Protocol: as §1, with “Cells in the presence or absence of a protein stabilizing agent were incubated with 2 mM SPQ for 12-18 hrs. prior to measurements.” left out, “The reaction was quenched by the addition of 150 mM KSCN.” left out
as §2

conversion of PrP^C to PrP^Sc, sequence (P04925 23-230 limits assumed): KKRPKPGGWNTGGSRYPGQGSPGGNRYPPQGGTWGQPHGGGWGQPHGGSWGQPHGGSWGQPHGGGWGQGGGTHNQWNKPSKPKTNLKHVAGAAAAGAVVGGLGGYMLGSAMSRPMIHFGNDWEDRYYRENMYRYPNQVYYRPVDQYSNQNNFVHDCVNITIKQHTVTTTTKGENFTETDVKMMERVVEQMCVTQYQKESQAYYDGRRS
T1 sequence (P13569 with tags, fused parts or gaps DEL508-508): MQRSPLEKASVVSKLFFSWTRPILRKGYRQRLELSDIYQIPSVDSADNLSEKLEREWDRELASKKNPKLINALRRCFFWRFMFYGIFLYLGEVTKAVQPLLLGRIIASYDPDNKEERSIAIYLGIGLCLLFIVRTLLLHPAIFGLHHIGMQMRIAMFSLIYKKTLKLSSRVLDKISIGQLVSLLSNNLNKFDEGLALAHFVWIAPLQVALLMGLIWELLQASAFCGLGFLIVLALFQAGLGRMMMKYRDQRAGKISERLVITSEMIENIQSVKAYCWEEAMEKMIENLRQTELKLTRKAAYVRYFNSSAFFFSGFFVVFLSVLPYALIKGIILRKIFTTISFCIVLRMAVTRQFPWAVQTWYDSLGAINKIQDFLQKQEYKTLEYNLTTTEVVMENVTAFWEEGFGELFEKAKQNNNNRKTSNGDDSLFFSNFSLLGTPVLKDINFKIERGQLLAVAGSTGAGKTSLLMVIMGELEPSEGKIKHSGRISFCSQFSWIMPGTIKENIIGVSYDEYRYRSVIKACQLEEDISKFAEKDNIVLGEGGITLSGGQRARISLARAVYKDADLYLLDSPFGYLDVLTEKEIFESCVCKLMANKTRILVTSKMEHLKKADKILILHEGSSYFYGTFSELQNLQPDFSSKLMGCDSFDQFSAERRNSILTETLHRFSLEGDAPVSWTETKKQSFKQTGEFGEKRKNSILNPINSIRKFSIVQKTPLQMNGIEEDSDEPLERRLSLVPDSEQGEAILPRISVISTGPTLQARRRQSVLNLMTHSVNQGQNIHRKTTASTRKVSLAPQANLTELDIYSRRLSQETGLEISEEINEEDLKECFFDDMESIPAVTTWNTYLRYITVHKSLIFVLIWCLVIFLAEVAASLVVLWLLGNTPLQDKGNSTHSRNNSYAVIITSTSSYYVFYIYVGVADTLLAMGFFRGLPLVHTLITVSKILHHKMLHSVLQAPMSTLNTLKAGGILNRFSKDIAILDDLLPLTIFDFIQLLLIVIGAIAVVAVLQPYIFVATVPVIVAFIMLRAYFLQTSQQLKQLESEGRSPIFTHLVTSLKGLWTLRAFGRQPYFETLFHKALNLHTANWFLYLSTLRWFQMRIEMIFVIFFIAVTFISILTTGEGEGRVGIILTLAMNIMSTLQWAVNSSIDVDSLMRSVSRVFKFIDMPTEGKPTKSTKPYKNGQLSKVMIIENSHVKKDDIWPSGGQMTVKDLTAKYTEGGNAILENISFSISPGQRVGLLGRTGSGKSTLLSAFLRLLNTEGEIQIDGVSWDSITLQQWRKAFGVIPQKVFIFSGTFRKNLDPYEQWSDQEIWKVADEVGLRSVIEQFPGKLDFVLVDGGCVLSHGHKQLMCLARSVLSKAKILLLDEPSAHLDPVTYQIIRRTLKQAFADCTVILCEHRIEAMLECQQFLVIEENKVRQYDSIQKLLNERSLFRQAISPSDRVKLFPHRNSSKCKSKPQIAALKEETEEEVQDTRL
temperature sensitive (ts) mutant p53 protein, sequence (P02340 whole entry A135V): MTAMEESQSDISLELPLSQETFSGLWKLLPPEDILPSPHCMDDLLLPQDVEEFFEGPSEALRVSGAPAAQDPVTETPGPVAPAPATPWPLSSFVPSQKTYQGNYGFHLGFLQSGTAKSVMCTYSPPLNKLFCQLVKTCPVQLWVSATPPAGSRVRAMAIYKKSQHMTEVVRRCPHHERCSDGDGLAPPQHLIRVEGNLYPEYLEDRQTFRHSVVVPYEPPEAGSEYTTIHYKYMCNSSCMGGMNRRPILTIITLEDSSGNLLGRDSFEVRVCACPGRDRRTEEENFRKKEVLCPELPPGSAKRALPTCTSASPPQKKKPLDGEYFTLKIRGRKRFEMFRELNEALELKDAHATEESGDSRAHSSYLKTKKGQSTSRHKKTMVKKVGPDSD
T2 sequence (P13569 whole entry): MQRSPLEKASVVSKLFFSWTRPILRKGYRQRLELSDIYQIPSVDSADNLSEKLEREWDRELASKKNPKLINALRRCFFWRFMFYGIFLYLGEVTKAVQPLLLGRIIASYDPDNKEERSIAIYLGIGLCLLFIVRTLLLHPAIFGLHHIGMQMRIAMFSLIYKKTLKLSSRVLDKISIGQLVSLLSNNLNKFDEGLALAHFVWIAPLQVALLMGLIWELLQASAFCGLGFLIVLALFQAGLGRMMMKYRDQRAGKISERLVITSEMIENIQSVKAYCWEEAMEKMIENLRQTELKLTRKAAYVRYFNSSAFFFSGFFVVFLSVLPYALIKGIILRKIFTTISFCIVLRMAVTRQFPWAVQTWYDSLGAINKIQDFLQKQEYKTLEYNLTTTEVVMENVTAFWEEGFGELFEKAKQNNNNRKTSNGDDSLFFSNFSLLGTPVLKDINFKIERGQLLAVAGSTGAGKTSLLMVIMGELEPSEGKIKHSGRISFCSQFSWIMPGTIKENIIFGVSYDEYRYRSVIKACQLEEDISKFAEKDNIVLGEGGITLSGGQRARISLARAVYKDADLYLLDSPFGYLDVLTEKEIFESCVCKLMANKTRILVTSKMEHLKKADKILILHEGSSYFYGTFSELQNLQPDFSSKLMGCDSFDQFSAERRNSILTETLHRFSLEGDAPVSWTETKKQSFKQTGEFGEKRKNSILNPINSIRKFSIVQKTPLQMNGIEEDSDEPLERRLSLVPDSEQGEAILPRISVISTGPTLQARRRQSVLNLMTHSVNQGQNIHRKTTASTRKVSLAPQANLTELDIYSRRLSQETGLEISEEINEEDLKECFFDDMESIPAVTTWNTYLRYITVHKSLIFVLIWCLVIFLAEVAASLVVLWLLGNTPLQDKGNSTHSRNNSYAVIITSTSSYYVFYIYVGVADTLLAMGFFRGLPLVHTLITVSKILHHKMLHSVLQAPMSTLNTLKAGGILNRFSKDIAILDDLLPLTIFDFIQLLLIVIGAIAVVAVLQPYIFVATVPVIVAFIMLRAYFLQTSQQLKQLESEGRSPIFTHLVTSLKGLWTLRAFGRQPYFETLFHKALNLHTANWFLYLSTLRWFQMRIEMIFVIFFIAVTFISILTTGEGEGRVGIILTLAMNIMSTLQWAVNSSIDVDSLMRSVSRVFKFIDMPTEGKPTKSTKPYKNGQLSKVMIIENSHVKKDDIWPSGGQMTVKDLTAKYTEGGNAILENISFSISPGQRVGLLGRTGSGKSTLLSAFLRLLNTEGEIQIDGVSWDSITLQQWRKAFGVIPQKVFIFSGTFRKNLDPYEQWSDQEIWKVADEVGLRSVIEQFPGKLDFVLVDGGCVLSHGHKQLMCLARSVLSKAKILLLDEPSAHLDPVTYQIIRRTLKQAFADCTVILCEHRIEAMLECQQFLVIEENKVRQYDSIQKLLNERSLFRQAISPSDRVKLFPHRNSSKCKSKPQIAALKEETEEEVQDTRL

Structure (SMILES): C[S+](C)[O-] [DMSO, dimethylsulfoxide]
- reduction of the amount of detergent insoluble PrP ([1]; ScN2a cells): over 50%
- concentration adversely affecting the morphology and growth rates of the cells ([2]; mouse): ≥ 200 mM

Structure (SMILES): [2H]O[2H] [deuterated water]
- CFTR processing in ΔF508 CFTR-expressing cells ([3]; deuterated water): competent to induce CFTR processing
- forskolin dependent chloride efflux ([4]; medium in 100% dH2O, two days): exhibited forskolin-dependent chloride transport
- restoration of transformed phenotype / wild type pp60^src activity [5]: much less effective
- p53 distribution 2 days following removal of the agent [6]: all of p53 now was found within the cytoplasm

Structure (SMILES): C[N+](C)(C)[O-] [TMAO, trimethylamine N-oxide]
- forskolin dependent chloride efflux ([4]; 100 mM TMAO, 2 days): Forskolin dependent chloride transport was observed
- reduction of the amount of detergent insoluble PrP ([1]; ScN2a cells): over 50%
- restoration of transformed phenotype / wild type pp60^src activity [5]: much less effective
- concentration adversely affecting the morphology and growth rates of the cells [2]: ≥ 200 mM
- p53 distribution 2 days following removal of the agent [6]: all of p53 now was found within the cytoplasm

Structure (SMILES): OCC(O)CO [glycerol]
- mature ΔF508 CFTR protein by Western blotting ([3]; 1 M glycerol, 37° C., 3 days): significant amounts of the mature ΔF508 CFTR protein
- duration of treatment giving maximal amounts of fully glycosylated ΔF508 CFTR protein ([3]; 1.25 M glycerol, 37° C.): 3 days
- glycerol concentration giving the maximal amount of properly processed mutant protein ([3]; 37° C., 3 days): 1 to 1.25 M
- effect of higher doses on fully glycosylated ΔF508 CFTR ([3]; doses higher than 1-1.25 M, 3 days): inhibitory
- forskolin stimulated chloride transport ([4]; 1.25 M glycerol, one day): forskolin stimulated chloride transport was observed
- concentration giving maximal rates of chloride efflux ([4]; 3 days): 1.25 M
- lowest concentration with increased chloride transport ([4]; 3 days): 0.5 M
- effect on amount of mature wild type CFTR protein or forskolin dependent chloride conductance [7]: little or no effect
- exogenously added MHM2 PrP in detergent fractions versus untreated ScN2a cells ([1]; 1 M glycerol 24 hrs, 40 hrs with MHM2 brain extract, 3F4 antibody): reduce the levels of the MHM2 protein in both the detergent soluble and insoluble fractions
- glycerol concentrations also giving significant reduction in conversion of PrP^C to PrP^Sc ([1]; 3 days): 0.25-0.5 M
- most effective glycerol concentration for reducing detergent insoluble PrP ([1]; 3 days, 0-1,000 mM tested): 1 M
- overall levels of insoluble PrP versus non-glycerol treated cells ([1]; ScN2a cells, glycerol 24 hrs): marked reduction
- PrP^C synthesis and movement of the newly synthesized protein to the plasma membrane (PIPLC release) ([1]; glycerol 24 hrs, PIPLC 5 U/ml 4 hrs): does not significantly affect
- overall extent of PrP^C to PrP^Sc conversion relative to untreated cells (pulse-chase) ([1]; glycerol 3 days, then 5 days without glycerol): marked reduction
- rate or overall extent of PrP^C synthesis (metabolic labeling) ([1]; presence versus absence of glycerol): no significant differences
- p53 distribution one day following removal of the agent [6]: no longer displayed a nuclear p53 distribution

Source: US6541195B2, “Correction of genetic defects using chemical chaperones” (The Regents of the University of California, priority 1996, dated 2003)
